# Reference: ChEMBL document CHEMBL4419180, “Compositions and methods for treating g protein coupled receptor mediated conditions” (2018)
# Calls of active or inactive are those of the source. The rule behind the calls is not given here. Non-standard residues stand in square brackets, D forms with d. Residues, ends and D or L forms follow the SMILES beside them. *: point of attachment. Boc = CC(C)(C)OC(=O)*; OBn = c1ccc(CO*)cc1; For = O=C*
# What was measured:
# Mus musculus [1] = assay: Suppression of ANIT-induced cholestatic liver injury in mouse assessed as effect on ALP level at 1 mg/kg, ip; format: functional, organism-based
# Mus musculus [2] = assay: Suppression of ANIT-induced cholestatic pruritus in mouse assessed as reduction in scratching bouts in 30 mins at 1 mg/kg, ip 30 mins before behavioral analysis; format: functional, organism-based
# Mus musculus [3] = assay: Suppression of ANIT-induced cholestatic liver injury in mouse assessed as effect on ALT level at 1 mg/kg, ip; format: functional, organism-based
# Mus musculus [4] = assay: Suppression of ANIT-induced cholestatic liver injury in mouse assessed as effect on total bilirubin at 1 mg/kg, ip; format: functional, organism-based
# Mus musculus [5] = assay: Suppression of ANIT-induced cholestatic liver injury in mouse assessed as effect on AST level at 1 mg/kg, ip; format: functional, organism-based
# Mus musculus [6] = assay: Suppression of bilirubin-induced pruritus in mouse assessed as reduction in scratching bouts in 30 mins at 0.25 mg/kg co-injected with bilirubin; format: functional, organism-based
# Mus musculus [7] = assay: Suppression of chloroquine-induced pruritus in mouse assessed as reduction in scratching bouts in 30 mins at 1 mg/kg co-injected with chloroquine; format: functional, organism-based
# [8] = biological target: Mas-related G-protein coupled receptor member X4 (Homo sapiens) (UniProt Q96LA9); assay: Inverse agonist activity at recombinant human MrgprX4 expressed in HEK293 cells assessed as reduction in inositol phosphate accumulation incubated for 1 hr at 37 degC followed by incubation for 30 mins at room temperature by HTRF assay relative to baseline; format: functional, cell-based
# [9] = biological target: Mas-related G-protein coupled receptor member X4 (Homo sapiens) (UniProt Q96LA9); assay: Antagonist activity at recombinant human MrgprX4 expressed in HEK293 cells assessed as blockade of bilirubin-induced inositol phosphate accumulation incubated for 1 hr at 37 degC followed by incubation for 30 mins at room temperature before bilirubin addition by HTRF assay relative to control; format: functional, cell-based
# Mas-related G-protein coupled receptor member X4 (Homo sapiens), sequence (Q96LA9 whole entry): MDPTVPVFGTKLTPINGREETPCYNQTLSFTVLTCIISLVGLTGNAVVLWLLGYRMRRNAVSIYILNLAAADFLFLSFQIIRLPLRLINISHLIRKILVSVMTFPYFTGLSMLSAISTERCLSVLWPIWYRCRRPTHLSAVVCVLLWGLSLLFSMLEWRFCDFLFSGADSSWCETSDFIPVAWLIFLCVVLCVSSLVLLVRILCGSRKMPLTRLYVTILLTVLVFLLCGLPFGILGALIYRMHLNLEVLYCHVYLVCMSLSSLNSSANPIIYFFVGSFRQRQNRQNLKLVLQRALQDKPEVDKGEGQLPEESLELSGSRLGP
Structure (SMILES),fold change (FC) [8],inhibition [9] [%],other results
CC(C)(C)OC(=O)N[C@@H](CCC(N)=O)C(=O)N[C@H](Cc1cn(C=O)c2ccccc12)C(=O)N[C@@H](Cc1ccccc1)C(=O)OCc1ccccc1 (Boc-Gln-[dW](For)-Phe-OBn),,,Activity (Mus musculus [1]): inactive; Activity (Mus musculus [2]): Active; Activity (Mus musculus [3]): inactive; Activity (Mus musculus [4]): inactive; Activity (Mus musculus [5]): inactive; Activity (Mus musculus [6]): Active; Activity (Mus musculus [7]): inactive
O=C(NCc1cc2ccccc2[nH]1)c1cc(-c2ccccn2)nc2ccc(Br)cc12,2 to 3,85,
Cc1nc(-c2ccnn2Cc2ccc(Cl)cc2)[nH]c1-c1ccccc1,3,85,
Cc1c(C(=O)NCc2ccccc2C(F)(F)F)ncn1Cc1ccc(Cl)cc1,3,85,
Nc1nc2ccccc2n1CCOc1ccccc1Cl,2 to 3,70 to 85,
